{"source": "patent US20110159603A1", "about": "“FLUORESCENT PROBE SPECIFIC TO HYDROGEN PEROXIDE” (THE UNIVERSITY OF TOKYO, priority 2008, published 2011)", "key": {"[1]": {"assay": "Fluorescence spectrum change on adding hydrogen peroxide", "conditions": "excitation 490 nm", "experimental": "[The source words this procedure for another target and reports this target under the same test.] (§1) The addition of hydroxyl radical (10 μM) to the test system was performed by the method of adding hydrogen peroxide (10 μM) to a solution of Compound 5, and then immediately adding a solution of iron(II) perchlorate (10 μM) in purified water to the mixture to generate hydroxyl radicals by the Fenton reaction."}, "[2]": {"assay": "Relative fluorescence intensity at 520 nm on adding other reactive oxygen species", "conditions": "hydroxyl radical 10 μM, peroxynitrite 10 μM, hypochlorite ion 10 μM, NOC13 100 μM or EP-1 100 μM; compound 1 μM; excitation 490 nm", "experimental": "as §1"}, "[3]": {"assay": "Relative fluorescence intensity with superoxide from hypoxanthine/xanthine oxidase (HPX/x.o.) system", "conditions": "compound 10 μM"}, "[4]": {"test_system": "RAW264.7 cells", "assay": "Detection of hydrogen peroxide in live cells by fluorescence microscopy", "format": "cell-based", "conditions": "RAW264.7 cells stimulated with LPS 50 μg/ml and IFN-γ 100 unit/ml for 12 hours vs non-stimulated; observed 2 hours after loading; excitation 470 to 495 nm, fluorescence 510 to 550 nm", "experimental": "It was confirmed that Compound 5 was also usable for detection of hydrogen peroxide in live cells. The RAW264.7 cells were stimulated with a lipopolysaccharide (LPS, 50 μg/ml) and interferon-γ (IFN-γ, 100 unit/ml) for 12 hours, then a diacetylated compound of Compound 5 was loaded on the cells, and 2 hours later, the cells were observed under a fluorescence microscope using the U-MNIBA2 filter set produced by Olympus Corporation (excitation wavelength: 470 to 495 nm, fluorescence wavelength: 510 to 550 nm) (FIG. 2)."}}, "data": [{"smiles": "N#Cc1ccc(C(=O)C(=O)c2ccc(-c3c4ccc(=O)cc-4oc4cc(O)ccc34)c(C(=O)O)c2)cc1", "note": "[Compound 5, 5-(4-cyanobenzoyl)carbonylfluorescein]", "values": [{"measurement": "change of the fluorescence spectrum over time", "setting": "[1]; hydrogen peroxide 100 μM added to compound 1 μM, after 5, 15, 30 and 60 minutes", "result": "increase of fluorescence intensity was observed over time"}, {"measurement": "relative fluorescence intensity at 520 nm", "setting": "[1]; hydrogen peroxide 100 μM for 30 minutes, compound 1 μM", "result": "increase of fluorescence intensity was observed only when hydrogen peroxide was added"}, {"measurement": "relative fluorescence intensity at 520 nm", "setting": "[2]", "result": "no increase of fluorescence intensity"}, {"measurement": "relative fluorescence intensity at 520 nm", "setting": "[3]; HPX/x.o. system with SOD 60 Unit/L added", "result": "no significant change in the degree of the increase of fluorescence intensity"}, {"measurement": "relative fluorescence intensity at 520 nm", "setting": "[3]; HPX/x.o. system with catalase 100 Unit/L added", "result": "reduced to around the level of the control"}, {"measurement": "relative fluorescence intensity at 520 nm", "setting": "[3]; superoxide 10 μM, HPX/x.o. system (x.o. 2.38 mUnit/L, HPX 10 μM), versus control", "result": "higher in the case using the HPX/x.o. system than in the case of the control"}, {"measurement": "fluorescence intensity in cells", "setting": "[4]", "result": "higher when loading Compound 5 on the stimulated cells (B) than on the non-stimulated cells (A)"}]}]}
